# Laboratory results from ChEMBL document CHEMBL3407472, “Multi-parameter optimization of aza-follow-ups to BI 207524, a thumb pocket 1 HCV NS5B polymerase inhibitor. Part 2: Impact of lipophilicity on promiscuity and in vivo toxicity” (Bioorg Med Chem Lett, 2015).
# Tested on: not listed separately
# Experiment: Permeability from apical to basolateral side of human Caco2 cells
# Format: ADME, cell-based
# Conditions: Caco-2, read-out: permeability
row,Structure (SMILES),Papp A→B [×10⁻⁶ cm/s]
1,CCOc1nc(NC(=O)C2(NC(=O)c3ccc4c(C5CCCC5)c(-c5ncc(Cl)cn5)n(C)c4c3)CCC2)ccc1/C=C/C(=O)O,15
2,CCOc1nc(NC(=O)C2(NC(=O)c3ccc4c(C5CCCC5)c(-c5ccccn5)n(C)c4c3)CCC2)ccc1/C=C/C(=O)O,21
3,CCOc1nc(NC(=O)C2(NC(=O)c3ccc4c(C5CCCC5)c(-c5ccc(Cl)cn5)n(C)c4c3)CCC2)ccc1/C=C/C(=O)O,15
4,CCOc1nc(NC(=O)C2(NC(=O)c3ccc4c(C5CCCC5)c(-c5cnccn5)n(C)c4c3)CCC2)ccc1/C=C/C(=O)O,13
5,CCOc1nc(NC(=O)C2(NC(=O)c3ccc4c(C5CCCC5)c(-c5cncnc5)n(C)c4c3)CCC2)ccc1/C=C/C(=O)O,17

# Tested on: not listed separately
# Experiment: Half life in human liver microsomes at 2 uM
# Format: ADME
# Conditions: not given
row,Structure (SMILES),half-life at 2 µM [min]
1,CCOc1nc(NC(=O)C2(NC(=O)c3ccc4c(C5CCCC5)c(-c5ncc(Cl)cn5)n(C)c4c3)CCC2)ccc1/C=C/C(=O)O,66
2,CCOc1nc(NC(=O)C2(NC(=O)c3ccc4c(C5CCCC5)c(-c5ccccn5)n(C)c4c3)CCC2)ccc1/C=C/C(=O)O,40
3,CCOc1nc(NC(=O)C2(NC(=O)c3ccc4c(C5CCCC5)c(-c5ccc(Cl)cn5)n(C)c4c3)CCC2)ccc1/C=C/C(=O)O,167
4,CCOc1nc(NC(=O)C2(NC(=O)c3ccc4c(C5CCCC5)c(-c5cnccn5)n(C)c4c3)CCC2)ccc1/C=C/C(=O)O,33
5,CCOc1nc(NC(=O)C2(NC(=O)c3ccc4c(C5CCCC5)c(-c5cncnc5)n(C)c4c3)CCC2)ccc1/C=C/C(=O)O,61
6,CCOc1nc(NC(=O)C2(NC(=O)c3ccc4c(C5CCCC5)c(-c5ccccn5)n(C)c4c3)CCC2)cnc1/C=C/C(=O)O,107
7,CCOc1nc(NC(=O)C(C)(C)NC(=O)c2ccc3c(C4CCCC4)c(-c4cncnc4)n(C)c3c2)ccc1/C=C/C(=O)O,69
8,CCOc1nc(NC(=O)C(C)(C)NC(=O)c2ccc3c(c2)c(C)c(-c2ccc(F)cn2)n3C2CCCCC2)cnc1/C=C/C(=O)O,94
9,CCOc1nc(NC(=O)C2(NC(=O)c3ccc4c(C5CCCC5)c(-c5cnccn5)n(C)c4c3)CCCC2)cnc1/C=C/C(=O)O,80
10,COc1nc(NC(=O)C2(NC(=O)c3ccc4c(C5CCCC5)c(-c5ccccn5)n(C)c4c3)CCC2)ccc1/C=C/C(=O)O,76

# Tested on: Hepatitis C virus
# Experiment: Antiviral activity against Hepatitis C virus genotype 1b infected in human Huh cells assessed as inhibition of viral replication by RT-PCR-based replicon assay
# Format: functional, cell-based, Hepacivirus hominis
# Conditions: not given
row,Structure (SMILES),EC50 [nM]
1,CCOc1nc(NC(=O)C2(NC(=O)c3ccc4c(C5CCCC5)c(-c5ncc(Cl)cn5)n(C)c4c3)CCC2)ccc1/C=C/C(=O)O,13
2,CCOc1nc(NC(=O)C2(NC(=O)c3ccc4c(c3)c(C)c(-c3ccc(F)cn3)n4C3CCCCC3)CCC2)cnc1/C=C/C(=O)O,12
3,CCOc1nc(NC(=O)C2(NC(=O)c3ccc4c(C5CCCC5)c(-c5ccccn5)n(C)c4c3)CCC2)ccc1/C=C/C(=O)O,11
4,CCOc1nc(NC(=O)C2(NC(=O)c3ccc4c(C5CCCC5)c(-c5ccc(Cl)cn5)n(C)c4c3)CCC2)ccc1/C=C/C(=O)O,13
5,CCOc1nc(NC(=O)C2(NC(=O)c3ccc4c(C5CCCC5)c(-c5cnccn5)n(C)c4c3)CCC2)ccc1/C=C/C(=O)O,8
6,CCOc1nc(NC(=O)C2(NC(=O)c3ccc4c(C5CCCC5)c(-c5cncnc5)n(C)c4c3)CCC2)ccc1/C=C/C(=O)O,15
7,CCOc1nc(NC(=O)C2(NC(=O)c3ccc4c(C5CCCC5)c(-c5ccccn5)n(C)c4c3)CCC2)cnc1/C=C/C(=O)O,13
8,CCOc1nc(NC(=O)C(C)(C)NC(=O)c2ccc3c(C4CCCC4)c(-c4ncc(Cl)cn4)n(C)c3c2)ccc1/C=C/C(=O)O,6
9,CCOc1nc(NC(=O)C(C)(C)NC(=O)c2ccc3c(C4CCCC4)c(-c4ccc(Cl)cn4)n(C)c3c2)ccc1/C=C/C(=O)O,5
10,CCOc1nc(NC(=O)C(C)(C)NC(=O)c2ccc3c(C4CCCC4)c(-c4cncnc4)n(C)c3c2)ccc1/C=C/C(=O)O,12
11,CCOc1nc(NC(=O)C(C)(C)NC(=O)c2ccc3c(c2)c(C)c(-c2ccc(F)cn2)n3C2CCCCC2)cnc1/C=C/C(=O)O,12
12,CCOc1nc(NC(=O)C2(NC(=O)c3ccc4c(C5CCCC5)c(-c5cnccn5)n(C)c4c3)CCCC2)cnc1/C=C/C(=O)O,5
13,COc1nc(NC(=O)C2(NC(=O)c3ccc4c(C5CCCC5)c(-c5ccccn5)n(C)c4c3)CCC2)ccc1/C=C/C(=O)O,15

# Tested on: not listed separately
# Experiment: Lipophilicity, log D of the compound at pH 7.4
# Format: physicochemical
# Conditions: buffer
row,Structure (SMILES),logD
1,CCOc1nc(NC(=O)C2(NC(=O)c3ccc4c(C5CCCC5)c(-c5ncc(Cl)cn5)n(C)c4c3)CCC2)ccc1/C=C/C(=O)O,> 5.9
2,CCOc1nc(NC(=O)C2(NC(=O)c3ccc4c(c3)c(C)c(-c3ccc(F)cn3)n4C3CCCCC3)CCC2)cnc1/C=C/C(=O)O,3.1
3,CCOc1nc(NC(=O)C2(NC(=O)c3ccc4c(C5CCCC5)c(-c5ccccn5)n(C)c4c3)CCC2)ccc1/C=C/C(=O)O,4.4
4,CCOc1nc(NC(=O)C2(NC(=O)c3ccc4c(C5CCCC5)c(-c5cnccn5)n(C)c4c3)CCC2)ccc1/C=C/C(=O)O,3.6
5,CCOc1nc(NC(=O)C2(NC(=O)c3ccc4c(C5CCCC5)c(-c5cncnc5)n(C)c4c3)CCC2)ccc1/C=C/C(=O)O,3.4
6,CCOc1nc(NC(=O)C2(NC(=O)c3ccc4c(C5CCCC5)c(-c5ccccn5)n(C)c4c3)CCC2)cnc1/C=C/C(=O)O,3.1
7,CCOc1nc(NC(=O)C(C)(C)NC(=O)c2ccc3c(C4CCCC4)c(-c4ncc(Cl)cn4)n(C)c3c2)ccc1/C=C/C(=O)O,4
8,CCOc1nc(NC(=O)C(C)(C)NC(=O)c2ccc3c(C4CCCC4)c(-c4ccc(Cl)cn4)n(C)c3c2)ccc1/C=C/C(=O)O,4.4
9,CCOc1nc(NC(=O)C(C)(C)NC(=O)c2ccc3c(C4CCCC4)c(-c4cncnc4)n(C)c3c2)ccc1/C=C/C(=O)O,3
10,CCOc1nc(NC(=O)C2(NC(=O)c3ccc4c(C5CCCC5)c(-c5cnccn5)n(C)c4c3)CCCC2)cnc1/C=C/C(=O)O,3.2
11,COc1nc(NC(=O)C2(NC(=O)c3ccc4c(C5CCCC5)c(-c5ccccn5)n(C)c4c3)CCC2)ccc1/C=C/C(=O)O,3.5

# Tested on: not listed separately
# Experiment: Half life in rat liver microsomes at 2 uM
# Format: ADME
# Conditions: not given
row,Structure (SMILES),half-life at 2 µM [min]
1,CCOc1nc(NC(=O)C2(NC(=O)c3ccc4c(C5CCCC5)c(-c5ccccn5)n(C)c4c3)CCC2)cnc1/C=C/C(=O)O,37
2,CCOc1nc(NC(=O)C(C)(C)NC(=O)c2ccc3c(C4CCCC4)c(-c4cncnc4)n(C)c3c2)ccc1/C=C/C(=O)O,76
3,CCOc1nc(NC(=O)C(C)(C)NC(=O)c2ccc3c(c2)c(C)c(-c2ccc(F)cn2)n3C2CCCCC2)cnc1/C=C/C(=O)O,77
4,CCOc1nc(NC(=O)C2(NC(=O)c3ccc4c(C5CCCC5)c(-c5cnccn5)n(C)c4c3)CCCC2)cnc1/C=C/C(=O)O,> 300
5,COc1nc(NC(=O)C2(NC(=O)c3ccc4c(C5CCCC5)c(-c5ccccn5)n(C)c4c3)CCC2)ccc1/C=C/C(=O)O,10

# Tested on: not listed separately
# Experiment: Plasma concentration in rat at 2 mg/kg, po each in 0.5% Methylcellulose and 0.3% Tween-80 and 1% N-methylpyrrolidone after 2 hrs
# Format: ADME, organism-based
# Set-up: dose 2 mg/kg, route oral
# Conditions: not given
row,Structure (SMILES),concentration at 2 h [nM]
1,CCOc1nc(NC(=O)C2(NC(=O)c3ccc4c(C5CCCC5)c(-c5ccccn5)n(C)c4c3)CCC2)cnc1/C=C/C(=O)O,200
2,CCOc1nc(NC(=O)C(C)(C)NC(=O)c2ccc3c(C4CCCC4)c(-c4cncnc4)n(C)c3c2)ccc1/C=C/C(=O)O,100
3,CCOc1nc(NC(=O)C(C)(C)NC(=O)c2ccc3c(c2)c(C)c(-c2ccc(F)cn2)n3C2CCCCC2)cnc1/C=C/C(=O)O,100
4,CCOc1nc(NC(=O)C2(NC(=O)c3ccc4c(C5CCCC5)c(-c5cnccn5)n(C)c4c3)CCCC2)cnc1/C=C/C(=O)O,100

# Tested on: not listed separately
# Experiment: Lipophilicity, log D of the compound
# Format: physicochemical
# Conditions: octanol/water
row,Structure (SMILES),logD
1,CCOc1nc(NC(=O)C2(NC(=O)c3ccc4c(C5CCCC5)c(-c5ccccn5)n(C)c4c3)CCC2)cnc1/C=C/C(=O)O,3.1
2,CCOc1nc(NC(=O)C(C)(C)NC(=O)c2ccc3c(C4CCCC4)c(-c4cncnc4)n(C)c3c2)ccc1/C=C/C(=O)O,3
3,CCOc1nc(NC(=O)C2(NC(=O)c3ccc4c(C5CCCC5)c(-c5cnccn5)n(C)c4c3)CCCC2)cnc1/C=C/C(=O)O,3.2
4,COc1nc(NC(=O)C2(NC(=O)c3ccc4c(C5CCCC5)c(-c5ccccn5)n(C)c4c3)CCC2)ccc1/C=C/C(=O)O,3.5

# Tested on: not listed separately
# Experiment: Plasma concentration in rat at 2 mg/kg, po each in 0.5% Methylcellulose and 0.3% Tween-80 and 1% N-methylpyrrolidone after 1 hr
# Format: ADME, organism-based
# Set-up: dose 2 mg/kg, route oral
# Conditions: not given
row,Structure (SMILES),concentration at 1 h [nM]
1,CCOc1nc(NC(=O)C2(NC(=O)c3ccc4c(C5CCCC5)c(-c5ccccn5)n(C)c4c3)CCC2)cnc1/C=C/C(=O)O,500
2,CCOc1nc(NC(=O)C(C)(C)NC(=O)c2ccc3c(C4CCCC4)c(-c4cncnc4)n(C)c3c2)ccc1/C=C/C(=O)O,200
3,CCOc1nc(NC(=O)C(C)(C)NC(=O)c2ccc3c(c2)c(C)c(-c2ccc(F)cn2)n3C2CCCCC2)cnc1/C=C/C(=O)O,300
4,CCOc1nc(NC(=O)C2(NC(=O)c3ccc4c(C5CCCC5)c(-c5cnccn5)n(C)c4c3)CCCC2)cnc1/C=C/C(=O)O,400

# Tested on: Hepatitis C virus
# Experiment: Antiviral activity against Hepatitis C virus genotype 1a infected in human Huh cells assessed as inhibition of viral replication by RT-PCR-based replicon assay
# Format: functional, cell-based, Hepacivirus hominis
# Conditions: subtype 1a
row,Structure (SMILES),EC50 [nM]
1,CCOc1nc(NC(=O)C2(NC(=O)c3ccc4c(C5CCCC5)c(-c5ncc(Cl)cn5)n(C)c4c3)CCC2)ccc1/C=C/C(=O)O,24
2,CCOc1nc(NC(=O)C2(NC(=O)c3ccc4c(c3)c(C)c(-c3ccc(F)cn3)n4C3CCCCC3)CCC2)cnc1/C=C/C(=O)O,63
3,CCOc1nc(NC(=O)C2(NC(=O)c3ccc4c(C5CCCC5)c(-c5ccc(Cl)cn5)n(C)c4c3)CCC2)ccc1/C=C/C(=O)O,40
4,CCOc1nc(NC(=O)C(C)(C)NC(=O)c2ccc3c(C4CCCC4)c(-c4ncc(Cl)cn4)n(C)c3c2)ccc1/C=C/C(=O)O,7
5,CCOc1nc(NC(=O)C(C)(C)NC(=O)c2ccc3c(C4CCCC4)c(-c4ccc(Cl)cn4)n(C)c3c2)ccc1/C=C/C(=O)O,9
6,CCOc1nc(NC(=O)C2(NC(=O)c3ccc4c(C5CCCC5)c(-c5cnccn5)n(C)c4c3)CCCC2)cnc1/C=C/C(=O)O,13
